# Test results reported in ChEMBL document CHEMBL4325861, “Naphthalene, a versatile platform in medicinal chemistry: Sky-high perspective” (Eur J Med Chem, 2019).
# What was measured:
# [1] = tested on: P388; test: Antiproliferative activity against mouse P388 cells; assay type: functional, cell-based
# [2] = tested on: HT-29; test: Antiproliferative activity against human HT-29 cells; assay type: functional, cell-based
# [3] = tested on: A549; test: Antiproliferative activity against human A549 cells; assay type: functional, cell-based
# [4] = Antiproliferative activity against human MEL28 cells; assay type: functional, cell-based; conditions: SK-MEL-28
# [5] = tested on: Candida albicans; test: Antifungal activity against Candida albicans; assay type: functional
# [6] = tested on: Staphylococcus aureus; test: Antibacterial activity against Staphylococcus aureus; assay type: functional
# [7] = tested on: Rattus norvegicus; test: Anti-inflammatory activity in rat assessed as inhibition of carrageenan-induced paw edema relative to control; assay type: functional
# [8] = tested on: Mycobacterium tuberculosis; test: Antimycobacterial activity against Mycobacterium tuberculosis; assay type: functional
# [9] = tested on: HL-60; test: Antiproliferative activity against human HL60 cells; assay type: functional, cell-based
# [10] = tested on: Mycobacterium avium; test: Antimycobacterial activity against Mycobacterium avium; assay type: functional
# [11] = tested on: HeLa; test: Antiproliferative activity against human HeLa cells; assay type: functional, cell-based
# [12] = Inhibition of Human cytomegalovirus protease; parameters: species or system Human betaherpesvirus 5
# [13] = tested on: HepG2; test: Antiproliferative activity against human HepG2 cells; assay type: functional, cell-based
# [14] = tested on: Pichia kudriavzevii; test: Antifungal activity against Candida krusei; assay type: functional
# [15] = biological target: Angiotensin II receptor (Homo sapiens, UniProt P30556+P50052); test: Antagonist activity at angiotensin-2 receptor (unknown origin); assay type: protein assay
# [16] = tested on: Mycobacterium tuberculosis; test: Antimycobacterial activity against Mycobacterium tuberculosis H37Rv; assay type: functional, organism-based
# [17] = tested on: THP-1; test: Anti-inflammatory activity in human THP1 cells assessed as reduction in TNF production; assay type: functional, cell-based
# [18] = biological target: Prostaglandin G/H synthase 2 (Homo sapiens) (UniProt P35354); test: Inhibition of COX2 (unknown origin) at 10 uM relative to control
# Chain of Prostaglandin G/H synthase 2 (Homo sapiens) (P35354 whole entry): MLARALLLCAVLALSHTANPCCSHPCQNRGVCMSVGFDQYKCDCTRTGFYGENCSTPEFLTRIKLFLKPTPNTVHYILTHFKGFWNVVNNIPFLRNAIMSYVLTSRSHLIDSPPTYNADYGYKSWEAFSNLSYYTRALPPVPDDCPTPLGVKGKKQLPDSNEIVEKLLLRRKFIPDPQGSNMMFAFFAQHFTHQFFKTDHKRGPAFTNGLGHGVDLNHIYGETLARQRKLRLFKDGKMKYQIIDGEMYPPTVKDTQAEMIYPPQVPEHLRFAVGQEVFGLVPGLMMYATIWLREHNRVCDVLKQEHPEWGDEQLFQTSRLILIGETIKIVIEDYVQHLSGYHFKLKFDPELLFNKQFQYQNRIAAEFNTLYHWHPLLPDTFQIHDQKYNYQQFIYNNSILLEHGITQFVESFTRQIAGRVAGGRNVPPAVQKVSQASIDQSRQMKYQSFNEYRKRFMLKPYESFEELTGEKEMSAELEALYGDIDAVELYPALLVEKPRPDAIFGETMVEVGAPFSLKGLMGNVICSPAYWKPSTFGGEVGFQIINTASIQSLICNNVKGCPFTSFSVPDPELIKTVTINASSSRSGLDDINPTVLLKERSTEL
# [19] = biological target: Prostaglandin G/H synthase 1 (Homo sapiens) (UniProt P23219); test: Inhibition of COX1 (unknown origin) at 10 uM relative to control
# Chain of Prostaglandin G/H synthase 1 (Homo sapiens) (P23219 whole entry): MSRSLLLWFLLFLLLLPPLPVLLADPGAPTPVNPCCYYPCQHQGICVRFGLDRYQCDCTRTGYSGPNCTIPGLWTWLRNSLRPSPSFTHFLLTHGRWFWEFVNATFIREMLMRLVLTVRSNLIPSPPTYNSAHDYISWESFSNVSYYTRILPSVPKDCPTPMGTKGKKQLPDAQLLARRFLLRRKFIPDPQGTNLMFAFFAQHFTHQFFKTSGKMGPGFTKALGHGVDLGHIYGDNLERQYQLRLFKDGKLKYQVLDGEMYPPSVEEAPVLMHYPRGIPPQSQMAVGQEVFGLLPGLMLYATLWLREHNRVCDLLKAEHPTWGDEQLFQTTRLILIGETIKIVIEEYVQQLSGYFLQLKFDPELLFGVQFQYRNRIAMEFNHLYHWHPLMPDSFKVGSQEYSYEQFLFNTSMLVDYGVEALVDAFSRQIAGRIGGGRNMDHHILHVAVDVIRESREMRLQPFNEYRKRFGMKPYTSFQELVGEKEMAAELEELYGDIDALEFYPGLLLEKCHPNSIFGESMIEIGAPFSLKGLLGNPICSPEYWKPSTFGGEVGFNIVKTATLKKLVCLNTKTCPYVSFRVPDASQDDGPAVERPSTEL
# [20] = biological target: Chymase (Homo sapiens, UniProt P23946); test: Inhibition of chymase in human mast cells using Suc-Ala-Ala-Pro-Phe-(p-nitroanilide) as substrate for 15 mins by spectrophotometric method; assay type: cell-based
# Chain of Chymase (P23946 whole entry): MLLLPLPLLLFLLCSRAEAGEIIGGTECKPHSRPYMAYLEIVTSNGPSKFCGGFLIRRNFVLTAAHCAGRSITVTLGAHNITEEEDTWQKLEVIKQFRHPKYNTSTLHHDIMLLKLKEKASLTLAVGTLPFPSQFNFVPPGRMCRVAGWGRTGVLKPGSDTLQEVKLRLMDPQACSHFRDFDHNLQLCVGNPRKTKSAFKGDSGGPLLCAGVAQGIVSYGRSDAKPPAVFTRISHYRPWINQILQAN
# [21] = biological target: Prostaglandin G/H synthase 2 (Homo sapiens, UniProt P35354); test: Inhibition of COX2 (unknown origin)
# Chain of Prostaglandin G/H synthase 2 (P35354 whole entry): as the sequence (P35354 whole entry) above
# [22] = tested on: Cryptococcus neoformans; test: Antifungal activity against Cryptococcus neoformans; assay type: functional
# [23] = Inhibition of Norovirus RNA-dependent RNA polymerase
# [24] = biological target: Protein farnesyltransferase (Homo sapiens, UniProt P49354+P49356); test: Inhibition of FTase (unknown origin) assessed as reduction in transfer of [3H]FPP to Ki-Ras; assay type: protein-complex assay
# [25] = tested on: Rattus norvegicus; test: Anti-inflammatory activity in Wistar albino rat assessed as inhibition of carrageenan-induced paw edema at 100 mg/kg, po via gavage measured after 1 hr by plethysmometric method relative to control; assay type: functional
# [26] = tested on: Mycobacterium tuberculosis; test: Antimycobacterial activity against Mycobacterium tuberculosis H37Ra; assay type: functional
# [27] = tested on: Neutrophil; test: Anti-inflammatory activity in human neutrophils assessed as inhibition of fMLP/cytochalasin B-induced elastase release preincubated for 5 mins followed by fMLP/cytochalasin B addition; assay type: functional, cell-based
# [28] = tested on: Neutrophil; test: Anti-inflammatory activity in human neutrophils assessed as inhibition of fMLP/cytochalasin B-induced superoxide anion generation preincubated for 5 mins followed by fMLP/cytochalasin B addition and measured after 10 mins by spectrophotometric method; assay type: functional, cell-based
# [29] = tested on: Rattus norvegicus; test: Anti-inflammatory activity in rat assessed as inhibition of carrageenan-induced paw edema after 4 hrs relative to control; assay type: functional
# [30] = tested on: Alternaria alternata; test: Antifungal activity against Alternaria alternata assessed as zone of inhibition; assay type: functional
# [31] = tested on: Staphylococcus aureus; test: Antibacterial activity against Staphylococcus aureus assessed as zone of inhibition; assay type: functional
# [32] = tested on: Human immunodeficiency virus 1; test: Antiviral activity against HIV1 infected in human MT4 cells; assay type: functional, organism-based; conditions: Human immunodeficiency virus 1, MT4
# [33] = tested on: Human immunodeficiency virus 1; test: Antiviral activity against HIV1; assay type: functional, organism-based
# [34] = Induction of apoptosis in human NB4.437r cells by Annexin V/propidium iodide staining based flow cytometry; assay type: functional, cell-based
# [35] = tested on: MT4; test: Antiproliferative activity against human MT4 cells; assay type: functional
# [36] = tested on: Aspergillus niger; test: Antifungal activity against Aspergillus niger by disk diffusion method; assay type: functional
structure (smiles),measurement,setting,value
CN(C)CCNC(=O)c1cc2c3c(cccc3c1)Sc1ccccc1-2,IC50,[1],0.176 µM
COc1ccc(/C=C\c2ccc3ccccc3c2)cc1O,IC50,[2],5.4 µM
same,IC50,[1],6.4 µM
same,IC50,[3],7.4 µM
same,IC50,[4],5.4 µM
CC(C)NC(=N)c1ccc2c(c1)nc(-c1ccc3c(c1)C(C)(C)CCC3(C)C)n2Cc1ccc2ccccc2c1,MIC,[5],0.78 µg/mL
same,MIC,[6],0.78 µg/mL
COc1ccc2cc([C@H](C)C(=O)O)ccc2c1 [NAPROXEN],inhibition (INH),[7],85.02%
COc1nc2ccc(Br)cc2cc1[C@@H](c1ccccc1)[C@@](O)(CCN(C)C)c1cccc2ccccc12 [BEDAQUILINE],MIC,[8],0.06 µg/mL
COc1cc2c3c([nH]c2cc1Cl)C(=O)c1ccccc1C3=O,IC50,[9],53.1 µM
O=C(Nc1cccc(F)c1)c1cccc2ccccc12,MIC,[10],59 µM
COc1ccccc1NC(=O)c1cccc2ccccc12,MIC,[10],54 µM
CCN(CC)CC1C(=O)c2cccc3cc([N+](=O)[O-])cc(c23)C1=O (centres undefined),IC50,[11],2.5 µg/mL
O=C(O)c1ccc(CNc2ccc3c(/C=C/c4ccc5ccc(Cl)cc5n4)cccc3c2)cc1,IC50,[12],2.7 µM
COc1cc(OC)c(C2=CCN(C)CC2)c(O)c1C(=O)/C=C/c1cccc2ccccc12,IC50,[13],6.5 µM
O=c1[nH]nc(COc2cccc3ccccc23)o1,MIC,[14],64 µg/mL
CCC(Cl)Cc1nc(CO)cn1Cc1ccc2cc(-c3nnn[nH]3)ccc2c1 (centres undefined),IC50,[15],0.2 µM
CC(=O)c1ccnc(C2=CC(=O)c3ccccc3C2=O)c1,MIC,[16],3.13 µg/mL
CC(=O)Oc1ccc2c(c1)c1c(n2C)C(=O)c2ccccc2C1=O,IC50,[9],1.01 µM
CSc1ncc(-n2nc(C(C)C)cc2NC(=O)Nc2ccc(-c3ccc(CN(C)C)nc3)c3ccccc23)cn1,IC50,[17],< 10 µM
COc1ccc2c(c1)CCC(NS(C)(=O)=O)C2 (centres undefined),inhibition,[18],50%
same,inhibition,[19],87%
O=C(c1ccc2ccccc2c1)C(c1cccc2ccccc12)P(=O)(O)O (centres undefined),Ki,[20],0.0023 µM
Nc1ccc(-c2ccc(CC3CCOC3)c(O)c2)c2ccccc12 (centres undefined),IC50,[17],< 10 µM
COc1ccccc1C1CC(Nc2ccc3ccccc3c2)=NN1C(C)=O (centres undefined),inhibition (INH),[7],67.85%
Nc1nnc(COc2cccc3ccccc23)o1,MIC,[14],64 µg/mL
CS(=O)(=O)Nc1cc(Cc2ccc(Cl)cc2)c2ccccc2c1,IC50,[21],10 µM
NS(=O)(=O)c1ccc2c(c1)-c1nnsc1CC2,MIC,[22],0.53 µg/mL
C(=C/c1ccc2ccccc2c1)/c1ccc2ccccc2c1,IC50,[2],5.4 µM
same,IC50,[1],6.4 µM
same,IC50,[3],7.4 µM
same,IC50,[4],5.4 µM
O=C1c2cccc3cc([N+](=O)[O-])cc(c23)C(=O)C1CN1CCCC1 (centres undefined),IC50,[11],0.3 µg/mL
Cc1nc(/N=N/c2cc(S(=O)(=O)O)c3cc([N+](=O)[O-])cc(S(=O)(=O)O)c3c2)cc(C=O)c1O,IC50,[23],0.45 µM
CSCC[C@H](NC(=O)c1cccc2cc(NC[C@@H](N)CS)ccc12)C(=O)O,IC50,[24],0.017 µM
O=C(CCNc1c(Br)cc(Br)cc1C(=O)O)Nc1ccc2ccccc2c1,inhibition (INH),[7],67.37%
CC(=O)Oc1ccc2c(c1)c1c(n2CCN(C)C)C(=O)c2ccccc2C1=O,IC50,[9],0.17 µM
COc1ccc2cc(C(C)C(=O)NC(=S)Nc3ccc(CS(=O)(=O)Nc4cc(C)on4)cc3)ccc2c1 (centres undefined),inhibition (INH),[7],89.77%
COc1ccc2cc(-c3nnc(-c4cc(Cl)cc(Cl)c4)o3)ccc2c1,inhibition in vivo at 100 mg/kg,[25],71.1%
O=C1C(O)=C(C(Nc2ccccn2)c2ccccc2O)C(=O)c2ccccc21 (centres undefined),MIC,[26],25 µg/mL
COc1cc(C(C)=O)c(O)c2ccc(O)cc12,IC50,[27],3.17 µg/mL
same,IC50,[28],1.9 µg/mL
Oc1c(C2=NNC(c3ccc(Br)cc3)C2)ccc2ccccc12 (centres undefined),inhibition (INH),[29],68.96%
COc1cc(/C=C/c2ccc3ccccc3c2)cc(OC)c1OC,IC50,[2],5.4 µM
same,IC50,[1],6.4 µM
same,IC50,[3],7.4 µM
same,IC50,[4],5.4 µM
Sc1nnc(COc2ccc3ccccc3c2)o1,MIC,[14],64 µg/mL
Nc1cccc2cccc(/N=C3/CCC/C(=N\c4cccc5cccc(N)c45)C3)c12,inhibition zone (IZ),[30],10.5 mm
same,inhibition zone (IZ),[31],10 mm
COc1ccc2cc(CCS(C)(=O)=O)ccc2c1,IC50,[21],10 µM
same,inhibition,[18],65%
same,inhibition,[19],29%
O=[N+]([O-])c1ccc2c(c1)-c1nnsc1CC2,MIC,[22],0.53 µg/mL
COc1ccc(/C=C/c2ccc3ccccc3c2)cc1O,IC50,[2],5.4 µM
same,IC50,[1],6.4 µM
same,IC50,[3],7.4 µM
same,IC50,[4],5.4 µM
C(=C\c1ccc2ccccc2c1)/c1ccc2ccccc2c1,IC50,[2],5.4 µM
same,IC50,[1],6.4 µM
same,IC50,[3],7.4 µM
same,IC50,[4],5.4 µM
CC(=O)Oc1ccc2[nH]c3c(c2c1)C(=O)c1ccccc1C3=O,IC50,[9],1.31 µM
O=C(COc1ccc2ccccc2c1)NCc1nnc(SCc2nc3ccccc3[nH]2)n1-c1ccccc1,EC50,[32],0.2 µg/mL
CC(C)c1cccc(OC(=O)Nc2ccc(-c3ccc(CN4CCOCC4)nc3)c3ccccc23)c1,IC50,[17],< 10 µM
CC(C)C(NC(=O)COc1ccc2ccccc2c1)C(=O)NN (centres undefined),EC50,[33],42 µg/mL
COc1cc(/C=C\c2ccc3ccccc3c2)cc(OC)c1OC [NAPHTHYLCOMBRETASTATIN],IC50,[2],5.4 µM
same,IC50,[1],6.4 µM
same,IC50,[3],7.4 µM
same,IC50,[4],5.4 µM
O=C(Cc1cccc2c1CCCC2)N/N=C/c1ccc(O)c([N+](=O)[O-])c1,IC50,[16],3.07 µg/mL
CN1CCC(N)CC1c1ccc(-c2ccc(N)c3ccccc23)cn1 (centres undefined),IC50,[17],< 10 µM
Nc1ccc(-c2ccc(Cc3cccnc3)c(O)c2)c2ccccc12,IC50,[17],< 10 µM
COc1ccc2[nH]c3c(c2c1)C(=O)c1ccccc1C3=O,IC50,[9],45.4 µM
O=C(O)c1ccc2cc(-c3ccc(O)c(C45CC6CC(CC(C6)C4)C5)c3)ccc2c1 [O-DEMETHYLATED ADAPALENE],EC50,[34],11.9 µM
COc1cc(OC)c(C2=CCN(C)CC2)c(O)c1C(=O)/C=C/c1ccc2ccccc2c1,IC50,[13],6.5 µM
CN(C)CC1C(=O)c2cccc3cc([N+](=O)[O-])cc(c23)C1=O (centres undefined),IC50,[11],0.15 µg/mL
COc1nc2ccc(Br)cc2cc1[C@H](c1ccccc1)N(C(=O)CN1CCOCC1)[C@@H](C)c1cccc2ccccc12,MIC,[8],60 µg/mL
COC(=O)C(NC(=O)COc1ccc2ccccc2c1)C(C)C (centres undefined),CC50,[35],42 µM
O=C1c2cccc3cc([N+](=O)[O-])cc(c23)C(=O)C1CN1CCCCC1 (centres undefined),IC50,[11],2 µg/mL
c1ccc(-c2ccc3c(c2)CCCC3)cc1,MIC,[36],780 µg/mL
CN(C)CCNC(=O)c1cc2c3ccccc3sc2c2ccccc12,IC50,[1],0.428 µM
CN(C)CCOc1ccc2c(c1)c1c(n2C)C(=O)c2ccccc2C1=O,IC50,[9],0.28 µM
N#CCCCOc1ccc(-c2ccc(N)c3ccccc23)cn1,IC50,[17],< 10 µM
